In PubChem BioAssay AID2060356 (Molecular Pharmacology Branch, DTP, NCI, 2025):
pIC50: −log10 of the molar value. Values joined by “and” are separate entries in the source; they are usually repeats but may differ in a detail not shown here. Equal entries are not always repeated.

Test system: PDC tumor spheroids with HUVEC/MSC, viability
Experiment: Anticancer human tumor 439559-082-T-J2-PDC patient-derived colon adenocarcinoma cell line growth inhibition [TAK]
Details: for viability, T/C: stronger effect = lower value
Text: Combinatorial screen of targeted agents with TAK-243 and ipatasertib in multi-cell type tumor spheroids
A high-throughput screen of multi-cell type tumor spheroids was designed to identify active combinations of targeted small molecules and TAK-243 or ipatasertib. Complex spheroids include a stromal component modeled by human endothelial cells (HUVEC) and fibroblasts modeled by human mesenchymal stem cells (MSCs). The concentration ranges selected for each drug and investigational agent were based upon clinically achievable concentrations if the clinical Cmax of the agent was known.
Compounds. The drugs and investigational agents: TAK-243 (785004), ipatasertib (767898), everolimus (733504), selumetinib (741078), bortezomib (756655), trametinib (758246), ixazomib (758254), vemurafenib (761431), dabrafenib (764134), sapanisertib (764658), alpelisib (765974), and copanlisib (816437), were obtained from the National Cancer Institute (NCI) Developmental Therapeutics Program Chemical Repository. The FDA-approved anticancer drug set is available from the NCI Developmental Therapeutics Program. […] The stock solutions were prepared in dimethyl sulfoxide (DMSO, Sigma-Aldrich, St. Louis, MO, cat. D2650) at 800-fold the tested concentration and stored at -70 degrees C prior to their use. All drugs and investigational agents were tested over a range starting from a high concentration at or near the clinical Cmax and decreasing in half-log increments. If the clinical Cmax for an agent had not been determined, the highest concentration tested was 10 microM.
NCI60 Cell Culture. NCI60 cell lines were obtained from the NCI Developmental Therapeutics Program Tumor Repository. For each lot of cells, the Repository performed Applied Biosystems AmpFLSTR Identifiler testing with PCR amplification to confirm consistency with the published Identifier STR profile for each cell line. Cells were kept in continuous culture for no more than 20 passages. The optimal seeding densities for each of the cell lines at each time point assessed were determined prior to performing the concentration response studies. Briefly, the NCI60 human tumor lines were grown as monolayers in RPMI 1640 medium supplemented with 10% FBS and 2 mmol/L L-glutamine.
An additional 2 lines were from the NCI60 cell line panel including melanomas, MALME-3M and SK-MEL-2. Pooled donor human umbilical vein endothelial cells (HUVEC, Lonza, cat. CC-2519) and human mesenchymal stem cells (hMSC, Lonza, cat. PT-2501) were purchased from Lonza (Walkersville, MD).
PDMR cell lines were grown in complete medium (DC medium): Dulbecco's modified Eagle's medium (DMEM)/F12 supplemented with 5% fetal bovine serum (FBS), 2 mM L-glutamine, 100 U/mL penicillin and 100 µg/ml streptomycin, 0.4 µg/ml hydrocortisone, 10 ng/ml epidermal growth factor (EGF) recombinant human protein, 24 µg/mL adenine, and 0.1 mg/mL primocin. During culture from frozen stock vials, PDMR cells were cultured in the same medium containing 10 µM Y-27632 (see Table 3). The PDCs were cultured in complete DMEM/F12 media without 10 microM Y-27632 dihydrochloride for at least two passages prior to the screen. The pooled donor HUVEC and hMSC were cultured in endothelial cell growth medium 2 (PromoCell, Heidelberg, Germany, cat. C-22011) and mesenchymal stem cell growth medium 2 (PromoCell, cat. C-28009), respectively. For all experiments, HUVEC and hMSC were used at passages </=5.
For the pre-screen, cell seeding densities were determined from a titration spanning the range from 5,000 to 313 cells per well. The mct-spheroids including 60% malignant cells, 25% HUVEC and 15% MSC dispensed as a mixture into U-bottom Ultra-Low Attachment 384-well plates (Corning, NY)
High-throughput Drug Combination Screening.
Prior to their inoculation into 384-well plates, malignant cells, HUVEC, and hMSC were removed from T flasks using TrypLE express (Thermo Fisher Scientific, cat. 12605036) and harvested by centrifugation for 5 min at 233 x g. […]
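Also: spheroids exposed to drugs for seven days before readout.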

COC1CC2CCC(C)C(O)(O2)C(=O)C(=O)N2CCCCC2C(=O)OC(C(C)CC2CCC(OCCO)C(OC)C2)CC(=O)C(C)C=C(C)C(O)C(OC)C(=O)C(C)CC(C)C=CC=CC=C1C (stereo unspecified) + CC(C)NCC(C(=O)N1CCN(c2ncnc3c2C(C)CC3O)CC1)c1ccc(Cl)cc1
pIC50 (curve of first compound, second compound 0.3 µM): < 7.00 | pIC50 (curve of first compound, second compound 0.949 µM): < 7.00 | pIC50 (curve of first compound, second compound 3 µM): < 7.00 | pIC50 (curve of first compound, second compound 9.49 µM): < 7.00 | pIC50 (curve of first compound, second compound 30 µM): < 7.00 | viability, T/C (second compound 0.3 µM, first compound 0.000316 µM): 110% | viability, T/C (second compound 0.3 µM, first compound 0.001 µM): 97.1% | viability, T/C (second compound 0.3 µM, first compound 0.00316 µM): 81.7% | viability, T/C (second compound 0.3 µM, first compound 0.01 µM): 90.4% | viability, T/C (second compound 0.3 µM, first compound 0.0316 µM): 83.7% | viability, T/C (second compound 0.3 µM, first compound 0.1 µM): 82% | viability, T/C (second compound 0.949 µM, first compound 0.000316 µM): 103% | viability, T/C (second compound 0.949 µM, first compound 0.001 µM): 88.6% | viability, T/C (second compound 0.949 µM, first compound 0.00316 µM): 85.9% | viability, T/C (second compound 0.949 µM, first compound 0.01 µM): 87.4% | viability, T/C (second compound 0.949 µM, first compound 0.0316 µM): 87.4% | viability, T/C (second compound 0.949 µM, first compound 0.1 µM): 79.8% | viability, T/C (second compound 3 µM, first compound 0.000316 µM): 97.4% | viability, T/C (second compound 3 µM, first compound 0.001 µM): 101% | viability, T/C (second compound 3 µM, first compound 0.00316 µM): 87.6% | viability, T/C (second compound 3 µM, first compound 0.01 µM): 77.9% | viability, T/C (second compound 3 µM, first compound 0.0316 µM): 81.5% | viability, T/C (second compound 3 µM, first compound 0.1 µM): 77.3% | viability, T/C (second compound 9.49 µM, first compound 0.000316 µM): 91.4% | viability, T/C (second compound 9.49 µM, first compound 0.001 µM): 88.6% | viability, T/C (second compound 9.49 µM, first compound 0.00316 µM): 81.3% | viability, T/C (second compound 9.49 µM, first compound 0.01 µM): 73.7% | viability, T/C (second compound 9.49 µM, first compound 0.0316 µM): 75.2% | viability, T/C (second compound 9.49 µM, first compound 0.1 µM): 76.8% | viability, T/C (second compound 30 µM, first compound 0.000316 µM): 93.1% | viability, T/C (second compound 30 µM, first compound 0.001 µM): 91.2% | viability, T/C (second compound 30 µM, first compound 0.00316 µM): 82.8% | viability, T/C (second compound 30 µM, first compound 0.01 µM): 77.7% | viability, T/C (second compound 30 µM, first compound 0.0316 µM): 79.1% | viability, T/C (second compound 30 µM, first compound 0.1 µM): 72.7%

Cn1cnc2c(F)c(Nc3ccc(Br)cc3Cl)c(C(=O)NOCCO)cc21
viability, T/C (compound 0.00949 µM): 101% and 110% | viability, T/C (compound 0.03 µM): 90.2% and 101% | viability, T/C (compound 0.0949 µM): 83.1% and 76.7% | viability, T/C (compound 0.3 µM): 71.4% and 79.2% | viability, T/C (compound 0.949 µM): 74.4% and 74.2% | viability, T/C (compound 3 µM): 65.5% and 64.2% | pIC50 (curve of compound): < 5.52

COC1CC2CCC(C)C(O)(O2)C(=O)C(=O)N2CCCCC2C(=O)OC(C(C)CC2CCC(OCCO)C(OC)C2)CC(=O)C(C)C=C(C)C(O)C(OC)C(=O)C(C)CC(C)C=CC=CC=C1C (stereo unspecified)
viability, T/C (compound 0.000316 µM): 110% and 103% | viability, T/C (compound 0.001 µM): 97.7% and 98.1% | viability, T/C (compound 0.00316 µM): 90.7% and 89.7% | viability, T/C (compound 0.01 µM): 82.7% and 90.2% | viability, T/C (compound 0.0316 µM): 90.9% and 86% | viability, T/C (compound 0.1 µM): 91.7% and 92.3% | pIC50 (curve of compound): < 7.00

CC(C)(C)c1nc(-c2cccc(NS(=O)(=O)c3c(F)cccc3F)c2F)c(-c2ccnc(N)n2)s1
viability, T/C (compound 0.0316 µM): 114% and 120% | viability, T/C (compound 0.1 µM): 109% | viability, T/C (compound 0.316 µM): 118% and 108% | viability, T/C (compound 1 µM): 108% and 104% | viability, T/C (compound 3.16 µM): 120% and 102% | viability, T/C (compound 10 µM): 101% and 98% | pIC50 (curve of compound): < 5.00

CC(C)NCC(C(=O)N1CCN(c2ncnc3c2C(C)CC3O)CC1)c1ccc(Cl)cc1 (stereo unspecified)
viability, T/C (compound 0.3 µM): 101% [middle of 10 runs] | viability, T/C (compound 0.949 µM): 94% [middle of 10 runs] | viability, T/C (compound 3 µM): 83.6% [middle of 10 runs] | viability, T/C (compound 9.49 µM): 80.9% [middle of 10 runs] | viability, T/C (compound 30 µM): 85.8% [middle of 10 runs] | pIC50 (compound alone, run of 02/28/2020): < 4.52

CC(C)CC(NC(=O)CNC(=O)c1cc(Cl)ccc1Cl)B1OC(=O)CC(CC(=O)O)(C(=O)O)O1 (stereo unspecified)
viability, T/C (compound 0.000316 µM): 111% and 114% | viability, T/C (compound 0.001 µM): 96.4% and 98.7% | viability, T/C (compound 0.00316 µM): 99.3% and 98.8% | viability, T/C (compound 0.01 µM): 93.5% and 90.3% | viability, T/C (compound 0.0316 µM): 85.8% and 77.8% | viability, T/C (compound 0.1 µM): 62.1% and 56.6% | pIC50 (curve of compound): < 7.00

COc1c(OCCCN2CCOCC2)ccc2c3n(c(=NC(=O)c4cnc(N)nc4)nc12)CCN3
viability, T/C (compound 0.00316 µM): 103% and 116% | viability, T/C (compound 0.01 µM): 91% and 95.7% | viability, T/C (compound 0.0316 µM): 82.8% and 82.9% | viability, T/C (compound 0.1 µM): 75.8% and 72.9% | viability, T/C (compound 0.316 µM): 68.9% and 70.3% | viability, T/C (compound 1 µM): 66% and 72.5% | pIC50 (curve of compound): < 6.00
